This is an account of results in patent US12673056B2, “Oral formulation comprising a crystalline form of rabeximod” (Cyxone AB, priority 2020, dated 2026).

Data set [1] is described as follows: Particle size by laser diffractometry (Malvern Mastersizer) following micronisation. It counts as physicochemical. The settings on record: for Feed particles % <10 μm: before micronisation; for % <10 μm / D(0.1) / D(0.5) / D(0.9): result after micronisation. The source says:
In a still further embodiment the composition comprises rabeximod in the form of a dry powder, e.g. a micronized powder. The particle size distribution can be determined by means of laser diffractometry. In a preferred embodiment, a Malvern Instru-ments Mastersizer is used to determine the particle size distribution. Using a Malvern Mastersizer apparatus, volume-based size distribution parameters will typically be re-ported, e.g. in the form of the D10, D50 and D90 values. The average particle size (D50-value), which is also denoted D50-value of the integral volume distribution, is defined in the context of this invention as the particle diameter at which 50 percent by volume of the particles have a smaller diameter than the diameter which corresponds to the D50-value. Likewise, 50 percent by volume of the particles have a larger diameter than the D50-value. Analogously, the D90-value of the integral volume distribution is defined as the particle diameter at which 90 percent by volume of the particles have a smaller diameter than the diameter which corresponds to the D90-value. Corre-spondingly, the D10-value of the integral volume distribution is defined as the particle diameter at which 10 percent by volume of the particles have a smaller diameter than the diameter which corresponds to the D10-value. Typically, in accordance with the present invention, the Rabeximod (micronized) dry powder has a particle size characterized by a D10 within the range of 0.5-1.0 μm, a D50 within the range of 1.5-3.5 μm, and/or a D90 within the range of 5.5-9.9 μm, when measured using laser light diffractometry.
The micronisation operation is performed using a standard jet-mill. The set point for the particle size was that not less than 90% of the particles should be smaller than 10 μm. In-process samples were drawn and analyzed using a Malvern Mastersizer during the process to verify that a sufficient size reduction had been achieved (Malvern Mastersizer 2000 instrument, equipped with a Scirocco 2000(A) dispersion unit and a Micro Tray, operated at 2.5 bar, a feed rate of 60%, a measuring time of 5 seconds and a background time of 5 second; compliant with Ph.Fur method 2.9.31).
Results of the micronisation step in particle size is provided in Table 1 for Rabeximod drug substance batches.

Data set [2] concerns patients diagnosed with active RA. As to the kind of experiment: Phase II clinical trial in combination with stable dose of methotrexate. It counts as in vivo, human. Here is the method:
A total of 225 patients diagnosed with active RA based on the American Rheu-matism Association (ARA) revised criteria were randomized to receive one of the following treatments: • 6.25 mg of Rabeximod (daily) • 15 mg of Rabeximod (daily) • 37.5 mg of Rabeximod (daily) • Placebo
Study drug was provided in the form of a capsule comprising micronized rabeximod, as described in the preceding sections. Placebo was provided in the form of a capsule identical in appearance to the study drug formulation. In all treatment groups patients were required to continue taking a stable dose of methotrexate. Over 200 patients completed the study. During the study, safety, efficacy and pharmaco-kinetic/pharmacodynamic properties of the study drug formulation were assessed with appropriate tests.

The subject of another data set is healthy male volunteers. As to the kind of experiment: Phase 1 clinical trial: safety, tolerability, pharmacokinetics of single and multiple oral rising doses. The class given is in vivo, human. The source says: The Phase 1 study assessed the safety, tolerability, pharmacokinetics and pharmacodynamics of single and multiple oral rising doses of Rabeximod (in a capsule formulation as described in the preceding sections) in healthy male volunteers. The study also included an open-label, randomised, two-period crossover part that was designed to investigate the effect of food on the pharmacokinetics of Rabeximod. In total, 87 healthy male subjects were enrolled into the study.

Take `Cc1cc2nc3c4cc(Cl)ccc4n(CC(=O)NCCN(C)C)c3nc2cc1C` [compound 149]: in data set [1], the “Feed particles % <10 μm” value is listed as 30.9%, the “% <10 μm” value was found to be 99.1%, the “D(0.1)” value was found to be 0.6 μm and the “D(0.5)” value is 2.0 μm. For the same compound, in data set [1], the “D(0.9)” value is 5.9 μm.
Taken in the same sequence, the figures for `Cc1cc2nc3c4cc(Cl)ccc4n(CC(=O)NCCN(C)C)c3nc2cc1C` [146-32] were 41.9%, 98.1%, 0.7 μm, 2.2 μm and 8.2 μm.
Take `Cc1cc2nc3c4cc(Cl)ccc4n(CC(=O)NCCN(C)C)c3nc2cc1C` [Rabeximod, 9-Chloro-2,3-dimethyl-6-(N,N-dimethylaminoethylamino-2-oxoethyl)-6H-indolo-[2,3b]quinoxaline]: in data set [2] (15 mg daily), the “most optimal treatment based on the efficacy and safety results” value is “most optimal”. The “effects for key secondary endpoints of treatment” value in data set [2] (6.25, 15 or 37.5 mg daily with methotrexate, p<0.05) is “therapeutically meaningful and statistically significant”. The “predicted increase of AUC0-t and Cmax for a doubling in dose” value in data set [2] (Power Model, dose range 6.25 to 37.5 mg, patients with moderate or severe RA, on average) is given as 2 fold. In data set [2] (repeated oral administration), the “kinetics with respect to time (accumulation in plasma consistent with t1/2)” value is on record as “linear with respect to time”. Also, the “time plasma concentrations measurable post dose” value in the data set on healthy male volunteers (on average, following repeated once daily dosing (Day 14)) is listed as “up to 168 hours”. Besides, the “increase of systemic exposure (AUC0-t) with dose” value is recorded as “trend was also noted” in the data set with healthy male volunteers (repeated once daily administration) and “approximately dose-proportional” in the data set on healthy male volunteers (single administration at 12.5 mg to 600 mg). In addition, in the data set on healthy male volunteers (single dose of 600 mg, and multiple dose of 600 mg loading followed by 100 mg), the “tolerability, higher doses” value was “less well tolerated due to phototoxicity reactions”. Further, the “tolerability, single doses” value in the data set with healthy male volunteers (single oral doses up to 400 mg) is “well tolerated”. Further, in the data set with healthy male volunteers (up to a 200 mg loading dose followed by 50 mg maintenance dose), the “tolerability, multiple oral doses” value is “well tolerated”.
Take `Cc1cc2nc3c4cc(Cl)ccc4n(CC(=O)NCCN(C)C)c3nc2cc1C` [compound 153]: in data set [1], the “Feed particles % <10 μm” value is 32.7%, the “% <10 μm” value came to 99.1%, the “D(0.1)” value worked out at 0.6 μm and the “D(0.5)” value was 1.9 μm. In data set [1], the “D(0.9)” value worked out at 5.7 μm.
Take `Cc1cc2nc3c4cc(Cl)ccc4n(CC(=O)NCCN(C)C)c3nc2cc1C` [262-1]: in data set [1], the “Feed particles % <10 μm” value was found to be 29.0%, the “% <10 μm” value was 94.5%, the “D(0.1)” value is on record as 0.7 μm and the “D(0.5)” value was found to be 2.2 μm. In addition, the “D(0.9)” value in data set [1] came to 8.4 μm.
Taken in the same sequence, the figures for `Cc1cc2nc3c4cc(Cl)ccc4n(CC(=O)NCCN(C)C)c3nc2cc1C` [262-2] were 32.6%, 92.6%, 0.7 μm, 2.2 μm and 7.6 μm.
